Row | SMILES | melting point [°C]
1 | CC(C)(C)C(=O)Nc1cccc(C(F)(F)F)c1 | 107
2 | Cc1ccc(-c2ccc(S(N)(=O)=O)cc2)n1-c1ccc(Cl)cc1 | 152 to 154
3 | Cc1nc(N)sc1-c1cccnc1 | 190 to 191
4 | O=C(OCCO)c1ncn2c1[C@@H]1CCCN1C(=O)c1sccc1-2 | 182 to 184
5 | COc1cc(O)c(C(=O)C=Cc2ccccc2)c(OC)c1 | 85.5
6 | CC1Cc2c(N=C3OC(=O)C4=C3CCCC4)ccc(Cl)c2O1 (configuration not stated) | 125 to 127
7 | CCn1nc(C)c(NC(N)=S)c1C | 248
8 | CC(C)(C)c1ccc(N2CCOCC2)c(NC(=O)C(F)(F)F)c1 | 89 to 90
9 | Cc1cc(Oc2c(Cl)cc(C(F)(F)F)cc2Cl)nn1C(=S)NCC1CCCO1 (configuration not stated) | 69 to 71
10 | COc1cccc(C2=NN=C(C)Cc3cc(OC)c(OC)cc32)c1 | 133 to 135
11 | CC(=O)Nc1ccc(S(=O)(=O)NCCCn2ccnc2)cc1 | 178 to 180
12 | Cc1cc(-c2nc3cc(F)cc(N4CCCC4)c3c(=O)[nH]2)cc(C)c1OCCN1CCCC1 | 207
13 | O=C1CN=C2C(=O)CC=CC2=N1 | 208 to 211
14 | CCc1cc(N(C)C(=O)N2CCN(c3cc(OC)cc(OC)c3)CC2)c(OC)nc1C | 78 to 79
15 | Cc1cc(-n2ccnc2)c2cccc(OCc3c(Cl)ccc(S(=O)(=O)N4CCC[C@H]4C(=O)NC4CC4)c3Cl)c2n1 | 108
16 | CCCCCCC(=O)Nc1ccn(C2OC(CO)C(O)C2O)c(=O)n1 (configuration not stated) | 131 to 136
17 | O=C(O)c1ccc(NCC=Cc2ccccc2)cn1 | 178 to 183
18 | O=C(OCC=C(c1ccccc1)[N+](=O)[O-])C(F)(F)C(F)(F)C(F)(F)C(F)(F)C(F)(F)C(F)(F)C(F)(F)F | 79 to 81
19 | CNC(=C[N+](=O)[O-])NCCN1CCC(C(=O)c2ccc(F)cc2)CC1 | 157 to 159
20 | CN(C)c1ncc(NC(=O)c2cc3cc(C(F)(F)F)cnc3n2Cc2cccc(F)c2)cn1 | 236 to 238
21 | OC(c1ccc(F)cc1)c1ccc2noc(-c3cccc(Cl)c3)c2c1 (configuration not stated) | 171
22 | COc1ccc2[nH]c(C(C)C)c(C=C3SC(=S)N(CC(=O)O)C3=O)c2c1 | 255 to 260
23 | BrCC(=CSc1ccccc1Br)c1ccccc1 | 65
24 | O=C1C(Cl)=C(c2ccccc2)C(=O)N1c1ccc(Cl)cc1 | 116 to 117

Results, then the compound that gave them:

Row | melting point [°C] | SMILES
25 | 87 to 89 | Oc1ccc2c(c1)OCC(c1cccc(C(F)(F)F)c1)C2c1ccc(OCCN2CCCC2)cc1 (configuration not stated)
26 | 140 to 146 | Cc1noc(NS(=O)(=O)c2ccccc2-c2ccc(-c3ncco3)cc2Cn2cccn2)c1C
27 | 148 to 149 | COc1ccc(C2CC(=O)N(C(N)=O)N2Cc2ccccc2)cc1OC1CCCC1 (configuration not stated)
28 | 64 to 65 | CO/C=C(/C(=O)OC)c1ccccc1COc1cccc(Br)n1
29 | 166 | O=C(c1ccc(F)cc1)C1CCN(CCn2c(=O)c3ccccc3n(-c3ccccc3)c2=O)CC1
30 | 76 | Cc1ccccc1OCCC(=O)N(C)c1ccccc1
31 | > 60 | CCCc1nc(CO)c(C(=O)OCOC(=O)C(C)(C)C)n1Cc1ccc(-c2ccccc2-c2nnn[nH]2)cc1
32 | 132 | O=c1c2cccnc2c(-c2cccc([N+](=O)[O-])c2)nn1Cc1ccccc1
33 | 72 to 73.5 | CCCCN(CCCC)CCCCCCOc1ccc([C@H]2c3ccc(OCc4ccccc4)cc3OC[C@H]2c2ccccc2)cc1 (racemic)
34 | 133 to 135 | COc1cc(N)c(Cl)cc1C(=O)NCC1CCN(CCCCCC(=O)c2c(C)oc3ccccc23)CC1
35 | 169 | O=Cc1cc2c(ccc3c4ccccc4ccc23)o1
36 | 164 to 165 | Cc1ncn(-c2nc(Cl)c(-c3ccccc3)c3ccccc23)c1C
37 | 225 to 226 | CS(=O)(=O)c1ccc(-c2cnn(Cc3ccc(O)cc3)c(=O)c2-c2ccc(F)cc2)cc1

— a melting point compilation (Tetko et al.; mined from patent text by program, amines drawn as free bases though some values may be those of a salt)
